pIC50: −log10 of the molar value.
target: T1, Prostacyclin Receptors (IP Receptors) of Human Thrombocyte Membranes (Homo sapiens, UniProt P43119); experiment: Binding to prostacyclin receptors (IP receptors) of human thrombocyte membranes, 3H-Iloprost displacement; settings: 3 nM 3H-Iloprost, 60 min, room temperature
T1 construct: Thrombocyte membranes are obtained by centrifuging 50 ml of human blood; tissue Maco Pharma, Langen (buffy coats); host or cells: human thrombocyte (platelet) membranes from human blood
T1 sequence (P43119 whole entry): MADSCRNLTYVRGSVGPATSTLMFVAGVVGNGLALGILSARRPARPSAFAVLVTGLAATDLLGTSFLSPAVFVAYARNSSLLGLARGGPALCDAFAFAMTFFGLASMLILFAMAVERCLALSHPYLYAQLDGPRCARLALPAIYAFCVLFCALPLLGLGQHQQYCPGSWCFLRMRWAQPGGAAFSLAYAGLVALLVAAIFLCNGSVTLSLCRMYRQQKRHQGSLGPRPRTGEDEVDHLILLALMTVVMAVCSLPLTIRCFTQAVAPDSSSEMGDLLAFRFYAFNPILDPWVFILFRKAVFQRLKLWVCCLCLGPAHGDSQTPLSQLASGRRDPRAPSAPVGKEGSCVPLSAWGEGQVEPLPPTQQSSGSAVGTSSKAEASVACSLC
Protocol: B-1. Studies of Binding to Prostacyclin Receptors (IP Receptors) of Human Thrombocyte Membranes
Thrombocyte membranes are obtained by centrifuging 50 ml of human blood (Buffy coats with CDP Stabilizer, from Maco Pharma, Langen) for 20 min at 160×g. Remove the supernatant (platelet-rich plasma, PRP) and then centrifuge again at 2000×g for 10 min at room temperature. Resuspend the sediment in 50 mM tris(hydroxymethyl)amino-methane, which has been adjusted to a pH of 7.4 with 1 N hydrochloric acid, and store at −20° C. overnight. On the next day, centrifuge the suspension at 80 000×g and 4° C. for 30 min. Discard the supernatant. Resuspend the sediment in 50 mM tris(hydroxy-methyl)aminomethane/hydrochloric acid, 0.25 mM ethylene diamine tetraacetic acid (EDTA), pH 7.4, and then centrifuge once again at 80 000×g and 4° C. for 30 min. Take up the membrane sediment in binding buffer (50 mM tris(hydroxymethyl)-aminomethane/hydrochloric acid, 5 mM magnesium chloride, pH 7.4) and store at −70° C. until the binding test.
For the binding test, incubate 3 nM ^3H-Iloprost (592 GBq/mmol, from AmershamBioscience) for 60 min with 300-1000 μg/ml of human thrombocyte membranes per charge (max. 0.2 ml) in the presence of the test substances at room temperature. After stopping, add cold binding buffer to the membranes and wash with 0.1% bovine serum albumin. After adding Ultima Gold Scintillator, quantify the radioactivity bound to the membranes using a scintillation counter. The nonspecific binding is defined as radioactivity in the presence of 1 μM Iloprost (from Cayman Chemical, Ann Arbor) and is as a rule <25% of the bound total radioactivity. The binding data (IC50 values) are determined using the program GraphPad Prism Version 3.02.

Row | pIC50 | Compound
1 | 6.26 | C=CCOC(=O)/C=C/c1c(-c2ccccc2)oc2ncnc(O[C@H](C)CCCCC(=O)O)c12 [Example 15]
2 | 7.89 | CCOC(=O)/C(C)=C/c1c(-c2ccccc2)oc2ncnc(O[C@H](C)CCCCC(=O)O)c12 [Example 16, (6R)-6-({5-[(1E)-3-ethoxy-2-methyl-3-oxoprop-1-en-1-yl]-6-phenylfuro[2,3-d]pyrimidin-4-yl}oxy)heptanoic acid]
3 | 5.98 | CCCC(=O)/C=C/c1c(-c2ccccc2)oc2ncnc(O[C@H](C)CCCCC(=O)O)c12 [Example 17]
4 | 6.88 | CCCNC(=O)/C(C)=C/c1c(-c2ccccc2)oc2ncnc(O[C@H](C)CCCCC(=O)O)c12 [Example 21, (6R)-6-({5-[(1E)-2-methyl-3-oxo-3-(propylamino)prop-1-en-1-yl]-6-phenylfuro[2,3-d]pyrimidin-4-yl}oxy)heptanoic acid]

Reference: patent publication US20100267749A1, “TRISUBSTITUTED FUROPYRIMIDINES AND USE THEREOF” (BAYER SCHERING PHARMA AKTIENGESELLSCHAFT, priority 2007, published 2010)
